Experimental findings from PubChem BioAssay AID256 (DTP/NCI, 2004) are described below.

The assay deals with CD2F1 mice, L1210 leukemia ip, survival T/C. Description: NCI In Vivo Anticancer Drug Screen. Data for tumor model L1210 Leukemia (intraperitoneal) in CD2F1 (CDF1) mice. The note with it: endpoint: mean survival time, higher = longer survival. The procedure: The antitumor activity of compounds was measured in mice bearing transplantable tumors. Survival or tumor size were measured and the results are expressed as the measurement made in the treated group (T) divided by the measurement made in the vehicle treated control group (C). The tumor model used in this assay is L1210 Leukemia (intraperitoneal) in CD2F1 (CDF1) mice

Setting [1] is: dose: 100.0 mg/kg/injection, schedule: Q01DX001 (ip), vehicle: saline with Tween-80.
[2] abbreviates: dose: 200.0 mg/kg/injection, schedule: Q01DX001 (ip), vehicle: saline with Tween-80.
[3] abbreviates: dose: 100.0 mg/kg/injection, schedule: Q04DX003 (ip), vehicle: saline.
Setting [4] is: dose: 200.0 mg/kg/injection, schedule: Q04DX003 (ip), vehicle: saline.
The mark [5] stands for this setting: dose: 100.0 mg/kg/injection, schedule: Q04DX003 (ip), vehicle: saline with Tween-80.
Where [6] appears, read: dose: 200.0 mg/kg/injection, schedule: Q04DX003 (ip), vehicle: saline with Tween-80.
Setting [7] is: dose: 400.0 mg/kg/injection, schedule: Q04DX003 (ip), vehicle: saline with Tween-80.
Setting [8] is: dose: 50.0 mg/kg/injection, schedule: Q01DX009 (ip), vehicle: saline with Tween-80.
[9] abbreviates: dose: 100.0 mg/kg/injection, schedule: Q01DX009 (ip), vehicle: saline with Tween-80.
The mark [10] stands for this setting: dose: 200.0 mg/kg/injection, schedule: Q01DX009 (ip), vehicle: saline with Tween-80.

Molecules are shown by their SMILES. Inconclusive results and toxic doses are left out.

In the case of `CCCCCCCCCCCCCCCC(=O)OCC1OC(n2ccc(N)nc2=O)C(O)C1O` (stereo not given), the T/C is 320 % of control (dose: 6.25 mg/kg/injection, schedule: Q01DX008 (ip), vehicle: saline); 377 % of control (dose: 12.5 mg/kg/injection, schedule: Q01DX008 (ip), vehicle: saline); 117 % of control (dose: 16.0 mg/kg/injection, schedule: Q01DX008 (oral), vehicle: saline); 202 % of control (dose: 16.0 mg/kg/injection, schedule: Q03HX024 (oral), vehicle: saline with Tween-80); 479 % of control (dose: 20.0 mg/kg/injection, schedule: Q01DX009 (ip), vehicle: saline with Tween-80); 150 % of control (dose: 25.0 mg/kg/injection, schedule: Q01DX001 (ip), vehicle: saline with Tween-80). Further, the T/C runs as follows: (dose: 25.0 mg/kg/injection, schedule: Q01DX008 (ip), vehicle: saline) 491 % of control; (dose: 25.0 mg/kg/injection, schedule: Q01DX009 (ip), vehicle: saline with Tween-80) 484 % of control; (dose: 30.0 mg/kg/injection, schedule: Q01DX009 (ip), vehicle: saline with Tween-80) 184 % of control; (dose: 32.0 mg/kg/injection, schedule: Q03HX024 (oral), vehicle: saline with Tween-80) 235 % of control; (dose: 50.0 mg/kg/injection, schedule: Q01DX001 (ip), vehicle: saline with Tween-80) 192 % of control; (dose: 50.0 mg/kg/injection, schedule: Q01DX008 (ip), vehicle: saline) 285 % of control. For the same molecule, the T/C is 265 % of control (dose: 64.0 mg/kg/injection, schedule: Q03HX024 (oral), vehicle: saline with Tween-80); 312 % of control under setting [1]; 580 % of control (dose: 125.0 mg/kg/injection, schedule: Q01DX001 (ip), vehicle: saline with Tween-80); 102 % of control (dose: 128.0 mg/kg/injection, schedule: Q01DX001 (oral), vehicle: saline with Tween-80); 151 % of control (dose: 128.0 mg/kg/injection, schedule: Q01DX008 (oral), vehicle: saline); 295 % of control (dose: 128.0 mg/kg/injection, schedule: Q03HX024 (oral), vehicle: saline with Tween-80). Moreover, the T/C reads like this: (dose: 128.0 mg/kg/injection, schedule: Q04DX003 (oral), vehicle: saline) 119 % of control; (dose: 150.0 mg/kg/injection, schedule: Q01DX001 (ip), vehicle: saline with Tween-80) 608 % of control; under setting [2], 612 % of control; (dose: 250.0 mg/kg/injection, schedule: Q01DX001 (ip), vehicle: saline with Tween-80) 214 % of control; (dose: 256.0 mg/kg/injection, schedule: Q01DX001 (oral), vehicle: saline with Tween-80) 101 % of control; (dose: 300.0 mg/kg/injection, schedule: Q01DX001 (ip), vehicle: saline with Tween-80) 83 % of control. Also, the T/C reads like this: (dose: 512.0 mg/kg/injection, schedule: Q01DX001 (oral), vehicle: saline with Tween-80) 108 % of control; (dose: 512.0 mg/kg/injection, schedule: Q01DX009 (oral), vehicle: saline) 169 % of control; (dose: 1024.0 mg/kg/injection, schedule: Q01DX001 (oral), vehicle: saline with Tween-80) 109 % of control; (dose: 1024.0 mg/kg/injection, schedule: Q01DX009 (oral), vehicle: saline) 177 % of control.

With `O=[N+]([O-])c1ccc(Cl)c(S(=O)O)c1`, the T/C (dose: 100.0 mg/kg/injection, schedule: Q01DX009 (ip), vehicle: saline) is 95 % of control; the T/C under setting [3] is 110 % of control; the T/C (dose: 200.0 mg/kg/injection, schedule: Q01DX009 (ip), vehicle: saline) is 106 % of control; the T/C under setting [4] is 102 % of control; the T/C (dose: 400.0 mg/kg/injection, schedule: Q01DX009 (ip), vehicle: saline) is 103 % of control; the T/C (dose: 400.0 mg/kg/injection, schedule: Q04DX003 (ip), vehicle: saline) is 106 % of control.

`CC1(C)OC(=O)C(c2ccccc2)O1` (stereo not given): the T/C is, setting by setting: under setting [5], 100 % of control; under setting [6], 98 % of control; under setting [7], 104 % of control.

In the case of `CC(=O)ON1C(=O)c2cccc3cccc(c23)C1=O`, the T/C is 96 % of control under setting [8] and 102 % of control under setting [9].

On to `CC(C)N(C(C)C)S(=O)(=O)c1ccccc1C(O)(c1ccccc1)c1ccccc1`, for which the T/C under setting [9] is 92 % of control, the T/C under setting [5] is 94 % of control, the T/C under setting [6] is 96 % of control and the T/C under setting [7] was 89 % of control.

`COc1cc(OC)c(NC(=O)OCC2CCCO2)cc1Cl` (stereo not given): the T/C reads like this: under setting [8], 90 % of control; under setting [9], 97 % of control; under setting [10], 94 % of control.

`COc1ccc(NC(=O)CC(C)(C)C(=O)O)cc1`: the T/C under setting [5] was 101 % of control, the T/C under setting [6] is 100 % of control and the T/C under setting [7] was 103 % of control.

`CNC(=O)Nc1nccs1`: the T/C under setting [8] is 105 % of control, the T/C under setting [9] is 106 % of control and the T/C under setting [10] was 97 % of control.

For `C[N+](C)(C)CC(O)c1ccccc1` (stereo not given), the T/C was 100 % of control under setting [8], 105 % of control under setting [9], 95 % of control under setting [5] and 87 % of control under setting [6].

On to `O=C(CN1CC1)NCCCCCCCCNC(=O)CN1CC1`, for which the T/C reads like this: (dose: 4.4 mg/kg/injection, schedule: Q01DX009 (ip), vehicle: carboxymethylcellulose (CMC)) 116 % of control; (dose: 6.6 mg/kg/injection, schedule: Q01DX009 (ip), vehicle: carboxymethylcellulose (CMC)) 122 % of control; (dose: 22.0 mg/kg/injection, schedule: Q01DX001 (ip), vehicle: carboxymethylcellulose (CMC)) 120 % of control; (dose: 33.0 mg/kg/injection, schedule: Q01DX001 (ip), vehicle: carboxymethylcellulose (CMC)) 123 % of control.

Turning to `NC(CSS(=O)(=O)O)=NCCSS(=O)(=O)O`, the T/C was 97 % of control under setting [3] and 97 % of control under setting [4].

As to `CCCCCCC/C=N/NC(=O)c1ccc[n+](C)c1`, the T/C is, setting by setting: under setting [1], 97 % of control; under setting [2], 97 % of control.

`ICC1COC(CI)CO1` (stereo not given): the T/C by setting is: under setting [9], 102 % of control; under setting [5], 105 % of control; under setting [10], 96 % of control; under setting [6], 110 % of control; (dose: 400.0 mg/kg/injection, schedule: Q01DX009 (ip), vehicle: saline with Tween-80) 100 % of control; under setting [7], 100 % of control.

Turning to `O=C(O)C1CC(n2cnc3c(=O)[nH]cnc32)CN1` (stereo not given), the T/C is, setting by setting: (dose: 50.0 mg/kg/injection, schedule: Q04DX002 (ip), vehicle: saline with Tween-80) 96 % of control; (dose: 100.0 mg/kg/injection, schedule: Q04DX002 (ip), vehicle: saline with Tween-80) 110 % of control; (dose: 200.0 mg/kg/injection, schedule: Q04DX002 (ip), vehicle: saline with Tween-80) 93 % of control; (dose: 400.0 mg/kg/injection, schedule: Q04DX002 (ip), vehicle: saline with Tween-80) 93 % of control.

With `O=C1OC(=O)c2ccc([N+](=O)[O-])c3cccc1c23`, the T/C (dose: 100.0 mg/kg/injection, schedule: Q04DX003 (ip), vehicle: Klucel (hydroxypropylcellulose) (HPC)) was 98 % of control; the T/C (dose: 200.0 mg/kg/injection, schedule: Q04DX003 (ip), vehicle: Klucel (hydroxypropylcellulose) (HPC)) is 106 % of control; the T/C (dose: 400.0 mg/kg/injection, schedule: Q04DX003 (ip), vehicle: Klucel (hydroxypropylcellulose) (HPC)) was 96 % of control.

For `O=C(O)/C=C/C1=CCCCC1`, the T/C is, setting by setting: under setting [8], 101 % of control; under setting [9], 93 % of control; under setting [10], 93 % of control.

Regarding `CCOP(=O)(OCC)c1ncn(C2OC(CO)C3OC(C)(C)OC32)c1N` (stereo not given), the T/C runs as follows: (dose: 12.5 mg/kg/injection, schedule: Q01DX005 (ip), vehicle: water) 92 % of control; (dose: 25.0 mg/kg/injection, schedule: Q01DX005 (ip), vehicle: water) 100 % of control; (dose: 50.0 mg/kg/injection, schedule: Q01DX005 (ip), vehicle: water) 96 % of control; (dose: 100.0 mg/kg/injection, schedule: Q01DX005 (ip), vehicle: water) 92 % of control; (dose: 200.0 mg/kg/injection, schedule: Q01DX005 (ip), vehicle: water) 92 % of control.
